The assay concerns gastric cancer cell lines, SNU001, SNU601, and SNU668. The experiment in a line: Reactivation analysis of silenced genes by drug treatment (RT-PCR). The assay is classed as cell-based, human. To be noted: for number of selected genes restored (summary): 5-aza and/or TSA treatment, of 26 epigenetic targets; for number of selected genes restored in the corresponding inactivated cells: after 5-Aza-dC and/or TSA treatment, gene-specific or cell-specific mode. The protocol:
To examine the correspondence between NotI-methylation and gene silencing at the neighboring region of the NotI site, RT-PCR analysis was performed for each selected gene with RNA of gastric cancer cell line. Reverse transcription using 5 μg of DNase-treated RNA was done using Superscript II reverse transcriptase (Invitrogen) in a reaction volume of 20 μL. One μL of the reverse transcription reaction was used for amplification using Platinum Taq DNA polymerase (Invitrogen). Amplification was done as follows: denaturation at 94° C. for 30 s, annealing at a primer specific annealing temperature for 30 s and extension at 72° C. for 45 s. All reactions were performed on a GeneAmp PCR System 9700 (Perkin-Elmer Corp.). Five μL of the PCR product were run on a 0.8% agarose gel and visualized by EtBr staining. GAPDH gene was used as a control for comparison of the amount of reverse transcribed template in each sample.
Three gastric cancer cell lines, SNU001, SNU601, and SNU668, were treated with 5-aza-2′-deoxycytidine (5-Aza-dC; Sigma) as a demethylating agent and 5-Aza-dC and trichostatin A (TSA; Sigma) as a HDAC inhibitor to examine the restoring of selected genes in those cells. Each cell was plated at a density of 1×10^5 cells/100-mm dish and cultures for 24 h, followed by 72 h culture with 1 μM 5-Aza-dC. Other cells were also followed by 24 h culture with 250 nM TSA or 72 h 5-Aza-dC-treated cells for another 24 h. RNA was prepared and RT-PCR analysis was then performed using gene-specific primer set as described above. GAPDH gene was also used as a control.
For the selected 22 genes, reactivation analysis was examined in three gastric cancer cell lines by 5-Aza-dC and/or TSA treatment.

Turning to `Nc1ncn([C@H]2C[C@H](O)[C@@H](CO)O2)c(=O)n1` [5-Aza-dC, 5-aza-2′-deoxycytidine], the “number of selected genes restored (summary)” value was 23 of 26 and the “number of selected genes restored in the corresponding inactivated cells” value is given as 22 genes. Further, for the setting “three gastric cancer cell lines, 1 μM 5-Aza-dC 72 h, RT-PCR, restored only by 5-Aza-dC”, the “restoration of expression of POPDC3, NACM2, PRKD1 and AMPD3” value is recorded as “restored in two or three corresponding inactivated cells”.
With `CC(/C=C/C(=O)NO)=C\[C@@H](C)C(=O)c1ccc(N(C)C)cc1` [TSA, trichostatin A], the “number of selected genes restored (summary)” value is reported as 23 of 26 and the “number of selected genes restored in the corresponding inactivated cells” value was determined as 22 genes.

The values are drawn from US20100075334A1, “METHYLATION BIOMARKER FOR EARLY DETECTION OF GASTRIC CANCER” (priority 2007, published 2010).
